Where “and” joins values, the source holds several entries; their conditions need not be identical. Equal entries are not always repeated.
Experiments:
[1] = system: T2635-resistant virus K90E N126K; assay type: cell-based, HIV-1; conditions: inactivation of cell-free virions, means ± SD
[2] = system: HIV-1 Bal (R5); test: Inhibition of HIV-1 infection (p24 ELISA); assay type: cell-based; conditions: Human immunodeficiency virus 1; laboratory-adapted strain Bal, CEMx174 5.25 M7 cells, p24 ELISA; read-out: IC50, inhibition of HIV-1 Bal infection
[3] = system: T20-resistant virus V38A N42T; assay type: cell-based, HIV-1; conditions: inactivation of cell-free virions, means ± SD
[4] = system: T2635-resistant virus Q79E N126K; assay type: cell-based, HIV-1; conditions: means ± SD
[5] = system: T2635-resistant virus N113E; assay type: cell-based, HIV-1; conditions: means ± SD
[6] = system: SM145/GS 016 (C, R5); test: Inactivation of cell-free HIV-1 clinical virus; assay type: cell-based; conditions: Human immunodeficiency virus 1, inactivation of cell-free virions, means ± SD
[7] = system: T20-resistant virus V38A; assay type: cell-based, HIV-1; conditions: means ± SD
[8] = system: HIV-1 IIIB (X4); test: Inhibition of HIV-1 infection (p24 ELISA); assay type: cell-based; conditions: Human immunodeficiency virus 1, MT2; laboratory-adapted strain IIIB, MT-2 cells, p24 ELISA; read-out: IC50, inhibition of HIV-1 IIIB infection
[9] = system: KNH1135 (A, R5); test: microbe, parasite or virus in culture; assay type: cell-based, HIV-1; conditions: Human immunodeficiency virus 1; inactivation of cell-free virions, clinical virus KNH1135 (A, R5); means ± SD
[10] = system: T20-resistant virus V38A N42D; assay type: cell-based, HIV-1; conditions: means ± SD
[11] = system: T20-resistant virus V38E N42S; assay type: cell-based, HIV-1; conditions: inactivation of cell-free virions, means ± SD
[12] = system: 96USSN20 (A, R5 and X4); test: Inhibition of HIV-1 clinical virus infection; assay type: cell-based; conditions: Human immunodeficiency virus 1; HIV-1 clinical virus 96USSN20 (A, R5 and X4); means ± SD
[13] = system: T2635-resistant virus N113E; assay type: cell-based, HIV-1; conditions: inactivation of cell-free virions, means ± SD
[14] = system: T20-resistant virus V38A; assay type: cell-based, HIV-1; conditions: inactivation of cell-free virions, means ± SD
[15] = system: T2635-resistant virus Q66R N126K; assay type: cell-based, HIV-1; conditions: inactivation of cell-free virions, means ± SD
[16] = system: T20-resistant virus V38A N42T; assay type: cell-based, HIV-1; conditions: means ± SD
[17] = system: T20-resistant virus V38E N42S; assay type: cell-based, HIV-1; conditions: means ± SD
[18] = system: WT (LAI); test: microbe, parasite or virus in culture; conditions: Human immunodeficiency virus 1
Description: The inactivation activities of the compounds, alone or in combination, against different cell-free HIV-1 virions were measured as previously described ([Qi et al., 2017]). Briefly, different concentrations of compound or PBS were incubated with 800 TCID50 live virus for 1 h at 4°C. Subsequently, PEG-6000 was added to a final concentration of 3% and incubated for another 1 h at 4°C. The virus was collected by centrifugation of the mixture at 13,000 rpm at 4°C for 30 min. The supernatant was discarded, and the virus was resuspended in 3% PEG-6000 containing 10 mg/mL BSA and centrifuged at 13,000 rpm at 4°C for 30 min. The above procedure was repeated twice to completely remove residual compounds. Finally, the virus particles were resuspended in 100 μL of medium and added to 100 μL of 3 × 10^4 MT-2 or CEMx 174 5.25 M7 cells. After 3-4 days of incubation at 37°C, 50 μL of supernatant per well were collected and mixed with the same volume of 5% Triton X-100. The p24 antigen was detected by ELISA.

[19] = system: HIV-1 Bal; test: Inactivation of cell-free HIV-1 virions (PEG-6000 precipitation, p24 ELISA); assay type: cell-based; conditions: Human immunodeficiency virus 1, BAL; cell-free virions, 1 h at 4°C, PEG-6000 precipitation; read-out: EC50, inactivation of HIV-1 Bal
[20] = system: T2635-resistant virus K90E; assay type: cell-based, HIV-1; conditions: inactivation of cell-free virions, means ± SD
[21] = target: T1, 6HB formation between N36 and C34-biotin (Human immunodeficiency virus type 1 group M subtype B, UniProt P04578); test: ELISA inhibition of six-helix bundle formation; assay type: biochemical, HIV-1; conditions: IC50, inhibition of 6HB formation between N36 and C34-biotin, peptides 0.5 μM final
T1 construct: preincubated with N36 peptide (2 μM, 50 μL) at 37°C for 1 h; purchased NIH AIDS Reagent Program
Description: An inhibitor (compound or C-peptide control) at graded concentrations was preincubated with N36 peptide (2 μM, 50 μL) at 37°C for 1 h. […] Subsequently, 50 μL of the mixture were added to the wells of the NC-1-coated plate, followed by incubation for 1 h. Then, HRP-labeled streptavidin and the substrate were added sequentially. The optical density at 450 nm was measured using a microplate reader (Tecan, Männedorf, Switzerland).

[22] = system: 92/TH/009 (A/E, R5); test: Inactivation of cell-free HIV-1 clinical virus; assay type: cell-based; conditions: Human immunodeficiency virus 1, inactivation of cell-free virions, means ± SD
[23] = system: T2635-resistant virus Q66R N126K; assay type: cell-based, HIV-1; conditions: means ± SD
[24] = system: T20-resistant virus V38A N42D; assay type: cell-based, HIV-1; conditions: inactivation of cell-free virions, means ± SD
[25] = system: T2635-resistant virus Q79E N126K; assay type: cell-based, HIV-1; conditions: inactivation of cell-free virions, means ± SD
[26] = system: 92/UG/024 (D, X4); test: Inhibition of HIV-1 clinical virus infection; assay type: cell-based; conditions: Human immunodeficiency virus 1; HIV-1 clinical virus 92/UG/024 (D, X4); means ± SD
[27] = system: T2635-resistant virus H3C; test: microbe, parasite or virus in culture; assay type: cell-based, HIV-1; conditions: Human immunodeficiency virus 1
[28] = system: 92/UG/001 (D, R5 and X4); test: Inhibition of HIV-1 clinical virus infection; assay type: cell-based; conditions: Human immunodeficiency virus 1; HIV-1 clinical virus 92/UG/001 (D, R5 and X4); means ± SD
[29] = system: T2635-resistant virus K90E; assay type: cell-based, HIV-1; conditions: means ± SD
[30] = system: PBL288 (C, R5); test: Inactivation of cell-free HIV-1 clinical virus; assay type: cell-based; conditions: Human immunodeficiency virus 1, inactivation of cell-free virions, means ± SD

T1 sequence (P04578 546-581): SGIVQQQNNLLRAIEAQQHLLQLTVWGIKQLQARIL

## CC1(C)CC(NC(=O)C(=O)Nc2ccc(Cl)c(F)c2)CC(C)(C)N1C(=O)COc1ccc(CCN2C(=O)/C(=C/c3ccc(-c4ccc(Cl)c(C(=O)O)c4)o3)SC2=S)cc1 [FD028, (Z)-2-Chloro-5-(5-((3-(4-(2-(4-(2-((4-Chloro-3-Fluorophenyl)amino)-2-oxoacetamido)-2,2,6,6-Tetramethylpiperidin-1-yl)-2-oxoethoxy)phenethyl)-4-oxo-2-Thioxothiazolidin-5-ylidene)methyl)furan-2-yl)benzoic Acid]
[1]
  EC50: 490 ± 60 nM
[2]
  IC50: 70 nM
[3]
  EC50: 320 ± 110 nM
[4]
  IC50: 200 ± 70 nM
[5]
  IC50: 570 ± 130 nM
[6]
  EC50: 960 ± 90 nM
[7]
  IC50: 1090 ± 130 nM
[8]
  IC50: 330 nM
[9]
  EC50: 1230 ± 320 nM
[10]
  IC50: 480 ± 110 nM
[11]
  EC50: 490 ± 30 nM
[12]
  IC50: 200 ± 10 nM
[13]
  EC50: 1200 ± 160 nM
[14]
  EC50: 780 ± 190 nM
[15]
  EC50: 140 ± 70 nM
[16]
  IC50: 950 ± 60 nM
[17]
  IC50: 240 ± 20 nM
[18]
  EC50: 40 ± 10 nM
[19]
  EC50: 660 nM
[20]
  EC50: 550 ± 230 nM
[21]
  IC50: 2030 nM and ~2000 nM
[22]
  EC50: 260 ± 60 nM
[23]
  IC50: 320 ± 80 nM
[24]
  EC50: 630 ± 140 nM
[25]
  EC50: 120 ± 20 nM
[26]
  IC50: 1040 ± 160 nM
[27]
  EC50: 1200 ± 140 nM
[28]
  IC50: 450 ± 120 nM
[29]
  IC50: 790 ± 280 nM
[30]
  EC50: 540 ± 180 nM

— paper PMC7868322, “Rational Design of A Novel Small-Molecule HIV-1 Inactivator Targeting Both gp120 and gp41 of HIV-1” (Frontiers in Pharmacology, 2021)
